Laboratory results from patent US20230127046A1, “G9a INHIBITOR” (RIKEN, priority 2019, published 2023).
Like-named read-outs stand apart in the source and are kept apart here.

Target: T1, recombinant human G9a protein (Homo sapiens, UniProt Q96KQ7)
T1 construct: purchased BPS Bioscience Inc. #51001
T1 sequence (Q96KQ7 785-1210 limits assumed): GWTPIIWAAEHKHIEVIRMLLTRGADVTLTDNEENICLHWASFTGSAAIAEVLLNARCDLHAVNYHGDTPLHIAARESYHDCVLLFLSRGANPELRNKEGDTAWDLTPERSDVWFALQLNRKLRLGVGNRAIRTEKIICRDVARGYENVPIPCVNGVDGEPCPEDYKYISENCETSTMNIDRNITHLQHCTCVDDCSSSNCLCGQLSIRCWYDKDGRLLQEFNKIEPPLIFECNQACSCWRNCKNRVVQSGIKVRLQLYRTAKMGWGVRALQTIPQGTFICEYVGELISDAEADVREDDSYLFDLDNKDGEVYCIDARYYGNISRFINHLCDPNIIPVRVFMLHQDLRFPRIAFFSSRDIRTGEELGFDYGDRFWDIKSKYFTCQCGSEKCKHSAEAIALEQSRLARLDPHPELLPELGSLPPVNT
Assay: G9a inhibitory activity test (ALPHA)
Assay type: biochemical
Outline: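 Human G9a (0.05 to 0.1 nM) in Tris pH 9.0 buffer preincubated with compound 10 min, then biotinylated histone H3 (1-21) peptide and SAM mixed 1:1 from 500 nM and 150 μM solutions, 1 h at room temperature. H3K9me2 detected by AlphaLISA acceptor/streptavidin donor beads; IC50 from percent inhibition relative to no-compound and no-enzyme controls.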

[1] = biotinylated histone H3 peptide (1-21), SAM, read-out: Inhibitory activity (G9a IC50 value)
[2] = read-out: Inhibitory activity (G9a IC50)

Cc1c(C(=O)NC(CCC2CC2)C(=O)N2CCc3cc(Br)ccc32)[nH]c2c1C(=O)CC(C)(C)C2 (stereo not shown) [Example 1-76]
IC50 [1]: ≥ 0.2 µM

CCCC[C@H](NC(=O)c1[nH]c2c(c1C)C(=O)CC(C)(C)C2)C(=O)Nc1ccc(OC2CCN(C)CC2)nc1 [Example 6-31]
IC50 [2]: < 0.05 µM

Cc1c(C(=O)NC(C(=O)Nc2ccc(OC3CCN(C)CC3)nc2)c2ccc(Cl)cc2)[nH]c2c1C(=O)CC(C)(C)C2 (stereo not shown) [Example 6-29]
IC50 [2]: ≥ 0.2 µM

Cc1c(C(=O)NC(CCC2CC2)C(=O)N2CCc3cc(OCCN(C)C)ccc3C2)[nH]c2c1C(=O)CC(C)(C)C2 (stereo not shown) [Example 1-140]
IC50 [2]: ≥ 0.2 µM

CCCCC(NC(=O)c1[nH]c2c(c1C)C(=O)CC(C)(C)C2)C(=O)NCc1ccc(CCCN)cc1 (stereo not shown) [Example 19, N-[1-[[4-(3-aminopropyl)phenyl]methylamino]-1-oxohexan-2-yl]-3,6,6-trimethyl-4-oxo-5,7-dihydro-1H-indole-2-carboxamide]
IC50 [2]: < 0.05 µM

CCCCC(NC(=O)c1[nH]c2c(c1C)C(=O)CC(C)(C)C2)C(=O)NCc1ccc2ccccc2c1 (stereo not shown) [Example 1-50]
IC50 [1]: ≥ 0.2 µM

CCCC[C@H](NC(=O)c1[nH]c2c(c1CCC)C(=O)CC(C)(C)C2)C(=O)Nc1ccccc1 [Example 6-37]
IC50 [2]: ≥ 0.2 µM

CCCCC(NC(=O)c1[nH]c2c(c1C)C(=O)CC(C)(C)C2)C(=O)Nc1ccc2c(c1)CCNC2 (stereo not shown) [Example 25-2]
IC50 [2]: 0.05 to 0.2 µM

CCCCC(NC(=O)c1[nH]c2c(c1C)C(=O)CC(C)(C)C2)C(=O)Nc1cccc2c1CCN(C)C2 (stereo not shown) [Example 1-55]
IC50 [1]: ≥ 0.2 µM

Cc1c(C(=O)NC(CCC2CC2)c2nc3cc(CO)ccc3n2C)[nH]c2c1C(=O)CC(C)(C)C2 (stereo not shown) [Example 33, N-[3-cyclopropyl-1-[5-(hydroxymethyl)-1-methylbenzoimidazol-2-yl]propyl]-3,6,6-trimethyl-4-oxo-5,7-dihydro-1H-indole-2-carboxamide]
IC50 [2]: ≥ 0.2 µM

CCCCC(NC(=O)c1[nH]c2c(c1C)C(=O)CC(C)(C)C2)C(=O)Nc1ccccc1SCC (stereo not shown) [Example 1-16]
IC50 [1]: 0.05 to 0.2 µM

Cc1c(C(=O)NC(CCC2CC2)C(=O)N2CCc3cc(OCCN(C)C)ccc32)[nH]c2c1C(=O)CC(C)(C)C2 (stereo not shown) [Example 1-134]
IC50 [2]: 0.05 to 0.2 µM

Cc1c(C(=O)NC(CCC2CC2)C(=O)N2CCc3cc(C#N)ccc32)[nH]c2c1C(=O)CC(C)(C)C2 (stereo not shown) [Example 1-64]
IC50 [1]: ≥ 0.2 µM

CCCCC(NC(=O)c1[nH]c2c(c1C)C(=O)CC(C)(C)C2)C(=O)Nc1ccc(C)cc1CC (stereo not shown) [Example 14-2]
IC50 [2]: < 0.05 µM

CCCC[C@H](NC(=O)c1[nH]c2c(c1C)C(=O)CC(C)(C)C2)C(=O)Nc1ccc(OC2CNC2)nc1 [Example 26-2]
IC50 [2]: < 0.05 µM

CCCCC(NC(=O)c1[nH]c2c(c1C)C(=O)CC(C)(C)C2)C(=O)Nc1ccc(CN(C)C)cc1 (stereo not shown) [Example 18-3]
IC50 [2]: < 0.05 µM

CCCCC(NC(=O)c1cc2cc(OCC)ccc2[nH]1)C(=O)Nc1ccc(OC2CCN(C)CC2)nc1 (stereo not shown) [Example 6-94]
IC50 [2]: ≥ 0.2 µM

CCCCC(NC(=O)c1[nH]c2c(c1C)C(=O)CC(C)(C)C2)C(=O)NCc1ccc(CO)cc1 (stereo not shown) [Example 16, N-[1-[[4-(hydroxymethyl)phenyl]methylamino]-1-oxohexan-2-yl]-3,6,6-trimethyl-4-oxo-5,7-dihydro-1H-indole-2-carboxamide]
IC50 [2]: ≥ 0.2 µM

COc1ccc(NC(=O)C(CCC2CC2)NC(=O)c2ccc(Nc3ccncc3C(F)(F)F)cc2)cn1 (stereo not shown) [Example 6-71]
IC50 [2]: ≥ 0.2 µM

CCCCC(NC(=O)c1[nH]c2c(c1C)C(=O)CC(C)(C)C2)C(=O)Nc1ccc(OC2CNC2)cc1 (stereo not shown) [Example 26-6]
IC50 [2]: 0.05 to 0.2 µM

CCCCC(NC(=O)c1[nH]c2c(c1C)C(=O)CC(C)(C)C2)C(=O)Nc1ccc(C)cc1OC (stereo not shown) [Example 1-37]
IC50 [1]: ≥ 0.2 µM

COc1ccc(NC(=O)C(CCC2CC2)NC(=O)c2ccc(-n3ccc4cnccc43)cc2C)cn1 (stereo not shown) [Example 6-70]
IC50 [2]: < 0.05 µM

COc1ccc(NC(=O)C(CCC2CC2)NC(=O)Cc2ccccc2)cn1 (stereo not shown) [Example 8, 4-cyclopropyl-N-(6-methoxypyridin-3-yl)-2-[(2-phenylacetyl)amino]butaneamide]
IC50 [2]: ≥ 0.2 µM

CC(C)c1c(C(=O)NC(CCC2CC2)C(=O)N2CCc3c(OCCN(C)C)cccc32)[nH]c2c1C(=O)CC(C)(C)C2 (stereo not shown) [Example 1-142]
IC50 [2]: 0.05 to 0.2 µM

Cc1c(C(=O)N[C@@H](CCC2CC2)C(=O)Nc2ccc(C#N)cc2)[nH]c2c1C(=O)CC(C)(C)C2 [Example 15-1, N-[(2S)-1-(4-cyanoanilino)-4-cyclopropyl-1-oxobutan-2-yl]-3,6,6-trimethyl-4-oxo-5,7-dihydro-1H-indole-2-carboxamide]
IC50 [2]: < 0.05 µM

CCCC[C@H](NC(=O)c1[nH]c2c(c1C)C(=O)CC(C)(C)C2)C(=O)Nc1ccccc1OC [Example 1-33]
IC50 [1]: ≥ 0.2 µM

Cc1c(C(=O)NC(CCC2CC2)C(=O)N2CCc3cc(OCCN4CCCCC4)ccc32)[nH]c2c1C(=O)CC(C)(C)C2 (stereo not shown) [Example 1-135]
IC50 [2]: 0.05 to 0.2 µM

COCc1ccc(NC(=O)C(CCC2CC2)NC(=O)c2[nH]c3c(c2C)C(=O)CC(C)(C)C3)cn1 (stereo not shown) [Example 1-60]
IC50 [1]: ≥ 0.2 µM

Cc1c(C(=O)NC(CCC2CC2)c2nc3cccc(C)c3n2C)[nH]c2c1C(=O)CC(C)(C)C2 (stereo not shown) [Example 30-2]
IC50 [2]: 0.05 to 0.2 µM

CCCCC(NC(=O)c1[nH]c2c(c1C)C(=O)CC(C)(C)C2)C(=O)NCc1ccc(CCN)cc1 (stereo not shown) [Example 24-3]
IC50 [2]: < 0.05 µM

CCCCC(NC(=O)c1[nH]c2c(c1C)C(=O)CC(C)(C)C2)C(=O)Nc1cccc(CN2CCC(F)CC2)c1 (stereo not shown) [Example 18-2]
IC50 [2]: < 0.05 µM

CCCCC(NC(=O)c1ccc(N2CCN(C)CC2)cc1)C(=O)Nc1ccc(OC2CCN(C)CC2)nc1 (stereo not shown) [Example 6-98]
IC50 [2]: ≥ 0.2 µM

CCCCC(NC(=O)c1[nH]c2c(c1C)C(=O)CC(C)(C)C2)C(=O)Nc1cc(OC)c(OC)c(OC)c1 (stereo not shown) [Example 1-109]
IC50 [1]: ≥ 0.2 µM

Cc1c(C(=O)NC(CCC2CC2)C(=O)Nc2ccc(OC3CCN(C)CC3)cc2)[nH]c2c1C(=O)CC(C)(C)C2 (stereo not shown) [Example 1-85]
IC50 [1]: < 0.05 µM

CCCCC(NC(=O)c1[nH]c2c(c1C)C(=O)CC(C)(C)C2)C(=O)Nc1ccc(CN2CCCC2)cc1 (stereo not shown) [Example 1-98]
IC50 [1]: < 0.05 µM

CCCCC(NC(=O)c1[nH]c2c(c1C)C(=O)CC(C)(C)C2)C(=O)Nc1ccc2[nH]c(C)cc2c1 (stereo not shown) [Example 1-95]
IC50 [1]: ≥ 0.2 µM

CCCCC(NC(=O)c1[nH]c2c(c1C)C(=O)CC(C)(C)C2)C(=O)Nc1cncc2ccccc12 (stereo not shown) [Example 1-15]
IC50 [1]: ≥ 0.2 µM

O=C(NC(CCC1CC1)C(=O)Nc1ccc(OC2COC2)nc1)c1ccc(Nc2ccncc2)cc1 (stereo not shown) [Example 1-88]
IC50 [1]: < 0.05 µM

CCCC[C@H](NC(=O)c1[nH]c2c(c1C)C(=O)CC(C)(C)C2)C(=O)NCc1ccc(N2CCN(CC)CC2)cc1 [Example 22-3]
IC50 [2]: ≥ 0.2 µM

CCCCC(NC(=O)c1[nH]c2c(c1C)C(=O)CC(C)(C)C2)C(=O)NCc1ccc(CN(CC)CC)cc1 (stereo not shown) [Example 18-12]
IC50 [2]: < 0.05 µM

CCCC[C@@H](NC(=O)c1[nH]c2c(c1C)C(=O)CC(C)(C)C2)C(=O)N[C@H](C)c1ccccc1 [Example 2-4]
IC50 [2]: ≥ 0.2 µM

CCCCC(NC(=O)c1ccc(Nc2ccncc2)cc1)C(=O)Nc1ccc(OC2CCN(C)CC2)nc1 (stereo not shown) [Example 11-5]
IC50 [2]: < 0.05 µM

CCCCC(NC(=O)c1sc(-c2cccnc2)nc1C)C(=O)Nc1ccc(OC2CCN(C)CC2)nc1 (stereo not shown) [Example 6-99]
IC50 [2]: ≥ 0.2 µM

Cc1c(C(=O)N[C@H](CCC2CC2)C(=O)N[C@@H](C)c2ccccc2)[nH]c2c1C(=O)CC(C)(C)C2 [Example 13-2, N-((R)-4-Cyclopropyl-1-oxo-1-(((S)-1-phenylethyl)amino)butan-2-yl)-3,6,6-trimethyl-4-oxo-4,5,6,7-tetrahydro-1H-indole-2-carboxamide]
IC50 [2]: ≥ 0.2 µM

COc1ccc(NC(=O)C(CCC2CC2)NC(=O)c2ccc(C3=CCN(C)CC3)cc2)cn1 (stereo not shown) [Example 6-68]
IC50 [2]: ≥ 0.2 µM

CCCCC(NC(=O)c1[nH]c2c(c1C)C(=O)CC(C)(C)C2)C(=O)Nc1ccc(N2CCCN(C)CC2)cc1 (stereo not shown) [Example 1-110]
IC50 [2]: 0.05 to 0.2 µM

CCCCC(NC(=O)c1[nH]c2c(c1C)C(=O)CC(C)(C)C2)C(=O)Nc1ccc(C)cc1 (stereo not shown) [Example 1-21]
IC50 [1]: ≥ 0.2 µM

CCCCC(NC(=O)c1[nH]c2c(c1C)C(=O)CC(C)(C)C2)C(=O)Nc1nn(CC)c2ccccc12 (stereo not shown) [Example 1-97]
IC50 [1]: ≥ 0.2 µM

CCCCC(NC(=O)c1[nH]c2c(c1C)C(=O)CC(C)(C)C2)C(=O)Nc1ccccc1C (stereo not shown) [Example 1-13]
IC50 [1]: ≥ 0.2 µM

Cc1c(C(=O)NC(CCC2CC2)C(=O)Nc2ccncc2)[nH]c2c1C(=O)CC(C)(C)C2 (stereo not shown) [Example 1-73]
IC50 [1]: ≥ 0.2 µM

CCCCC(NC(=O)c1[nH]c2c(c1C)C(=O)CC(C)(C)C2)C(=O)NCc1ccc(CNC)cc1 (stereo not shown) [Example 18-6]
IC50 [2]: < 0.05 µM

CCCCC(NC(=O)c1ccc(Nc2ccncc2)cc1)C(=O)Nc1ccc(OC)nc1 (stereo not shown) [Example 6-100]
IC50 [2]: < 0.05 µM

Cc1c(C(=O)N[C@@H](CCC2CC2)C(=O)N[C@@H](C)c2ccccc2)[nH]c2c1C(=O)CC(C)(C)C2 [Example 13-1, N-((S)-4-cyclopropyl-1-oxo-1-(((S)-1-phenylethyl)amino)butan-2-yl)-3,6,6-trimethyl-4-oxo-4,5,6,7-tetrahydro-1H-indole-2-carboxamide]
IC50 [2]: < 0.05 µM

CCCC[C@H](NC(=O)c1[nH]c2c(c1C)C(=O)CC(C)(C)C2)c1nc2ccc(OCCN(C)C)cc2[nH]1 [Example 37-4]
IC50 [2]: ≥ 0.2 µM

COc1ccc(NC(=O)C(CCC2CC2)NC(=O)c2cccc(CCCN(C)C)c2)cn1 (stereo not shown) [Example 6-75]
IC50 [2]: ≥ 0.2 µM
